Experimental data published in patent publication US5607926A, “Cephalosporin antibiotics” (Microcide Pharmaceuticals, Inc., priority 1995, dated 1997).
In brackets after ≈: the same amount, converted by molar mass. Like-named read-outs stand apart in the source and are kept apart here.

Assays:
Format in all cases: cell-based
[1] = test system: S. aureus ATCC 29213; test: In vitro antibacterial evaluation, MIC by agar dilution, S. aureus ATCC 29213; settings: Staphylococcus aureus, ATCC29213
Description: (§1) The compounds of the invention were evaluated against several β-lactamresistant bacteria strains by determining the minimum inhibitory concentration (MIC, μg/ml) of each compound with respect to each strain. The MIC, the lowest concentration of antibiotic which inhibits growth of the test organism, was determined by the agar dilution method.
(§2) To determine the MIC for bacterial isolates, the test compound was incorporated in a series of two-fold dilutions into liquified Mueller-Hinton agar. Upon solidification, a number of different bacterial strains were spot inoculated with a replicating device onto the agar surface. […] The procedures used in these studies have been standardized by the National Committee for Clinical Laboratory Standards (NCCLS), as per the NCCLS publication entitled METHODS FOR DILUTION ANTIMICROBIAL SUSCEPTIBILITY TESTS (1991), which is incorporated herein by reference.
(§3) Aliquots of antimicrobial agents were prepared in phosphate buffered saline (PBS) at pH 7.2. Tween 20 or DMSO was used as a solubilizing vehicle as needed. Standard methods of vortexing, sonicating and gentle heat were used to facilitate solubilizing the test agent. Typically, the concentration of the stock solution was 10× that of the highest drug concentration tested. A 1.28 mg/mL stock solution was used with a subsequent highest working concentration of 128 μg/mL. Serial two-fold dilutions were done through ≤0.25 μg/mL. Each drug level was tested in duplicate. Two-fold drug dilutions were done in sterile 50 mL tubes with a final drug volume of 5 mL. Upon the addition of 45 mL of molten agar, a 10-fold dilution resulted. Two, 25 mL. plates were then poured into 15×150 mm square Petri plates with grids and allowed to harden.
(§4) A control plate with a reference drug, either cefotaxime, vancomycin or imipenem, was used as the positive growth control. Stock concentrations of reference antibiotics were prepared and frozen at -80° C. Upon preparation, the control plates were sealed and stored in the refrigerator for up to 1 week prior to use; however, imipenem control plates had to be prepared just prior to use. All test plates were used within 24 hours of preparation.
(§5) Satisfactory results were obtained where the inoculum contained about 10^4 colony forming units (cfu) ±0.5 logs. Starting with pure cultures of the test isolates on agar plates, a few isolated colonies were transferred to a tube of nutrient broth and allowed to grow 4-6 hours at 35°-36° C. to reach log-phase growth. Dropwise addition of the broth culture to PBS was done to match a 0.5 McFarland turbidity standard equal to 10^8 cfu/mL. This was further diluted ten-fold in PBS to reach a working inoculum concentration of 10^7 cfu/mL. When 1 μL of the working inoculum was applied to the agar surface a concentration of about 10^4 cfu per spot was obtained.
(§6) Disposable sterile 1 μL loops were used to inoculate test plates, with each isolate in a designated grid on the agar plate. An alternate method of inoculation involved the use of a replica plater, a device with 48 steel pins allowing the simultaneous inoculation of multiple isolates. After the spots had dried, the plates were incubated at 35°-36° C. for 16-20 hours. Endpoints were assessed as the minimum inhibitory concentration (MIC) of antimicrobial agent.

[2] = test system: S. aureus 76 (Meth^R)(lac^+); test: In vitro antibacterial evaluation, MIC by agar dilution, S. aureus 76; settings: Staphylococcus aureus, read-out: MIC
Description: as §1, §2, §3, §4, §5, §6

[3] = test system: S. aureus Col8A (Meth^S)(lac^-); test: In vitro antibacterial evaluation, MIC by agar dilution, S. aureus Col8A; settings: Staphylococcus aureus
Description: as §1, §2, §3, §4, §5, §6
The novel agents of this invention are notable for their enhanced activity against S. aureus Col and Enterococci (E. faecium and E. faecalis). The S. aureus Col strain is a high-level PBP2a producer, whereas S. aureus Col 8A, its isogenic partner, lacks PBP2a. […] Thus, the compounds of the present invention are effective against PBP2a-producing bacteria.

[4] = test system: S. haemolyticus (Meth^R); test: In vitro antibacterial evaluation, MIC by agar dilution, S. haemolyticus; settings: Staphylococcus haemolyticus, read-out: MIC
Description: as §1, §2, §3, §4, §5, §6

[5] = test system: E. faecium ATCC 35667; test: In vitro antibacterial evaluation, MIC by agar dilution, E. faecium ATCC 35667; settings: Enterococcus faecium, ATCC35667, read-out: MIC
Description: as §1, §2, §3, §4, §5, §6

[6] = test system: E. faecalis ATCC 29212; test: In vitro antibacterial evaluation, MIC by agar dilution, E. faecalis ATCC 29212; settings: Enterococcus faecalis, ATCC29212; E. faecalis ATCC 29212; read-out: MIC
Description: as §1, §2, §3, §4, §5, §6

[7] = test system: E. coli ATCC 25922; test: In vitro antibacterial evaluation, MIC by agar dilution, E. coli ATCC 25922; settings: Escherichia coli, ATCC25922, read-out: MIC
Description: as §1, §2, §3, §4, §5, §6

[8] = test system: P. aeruginosa ATCC 27853; test: In vitro antibacterial evaluation, MIC by agar dilution, P. aeruginosa ATCC 27853; settings: Pseudomonas aeruginosa, ATCC27853, read-out: MIC
Description: as §1, §2, §3, §4, §5, §6

[9] = S. aureus ATCC 29213, read-out: MIC

Compound	MIC [1, 9]	MIC [2]	MIC [3]	MIC [4]	MIC [5]	MIC [6]	MIC [7]	MIC [8]	MIC [1]
Nc1nc(/C(=N/OC2CCCC2)C(=O)N[C@@H]2C(=O)N3C(C(=O)O)=C(Sc4cccnc4-c4ccccc4)CS[C@H]23)cs1 [Cmpd 86, (7R)-7-[(Z)-2-(aminothiazol-4-yl)-2-(cyclopentyloxyimino)acetamido]-3-(2-phenylpyridin-3-ylthio)-3-cephem-4-carboxylic acid]	1 µg/mL (≈ 1.61 µM)	16 µg/mL (≈ 25.7 µM)	1 µg/mL (≈ 1.61 µM)	16 µg/mL (≈ 25.7 µM)	2 µg/mL (≈ 3.21 µM)	4 µg/mL (≈ 6.42 µM)	2 µg/mL (≈ 3.21 µM)	32 µg/mL (≈ 51.4 µM)	–
NCc1ccccc1CC(=O)N[C@@H]1C(=O)N2C(C(=O)O)=C(Sc3ccnn3-c3ccccc3)CS[C@H]12 [Cmpd 96, (7R)-7-[((2-aminomethylphenyl)acetyl)amino]-3-(1-N-phenylpyrazol-5-ylthio)-3-cephem-4-carboxylic acid]	0.25 µg/mL (≈ 0.479 µM)	16 µg/mL (≈ 30.7 µM)	0.5 µg/mL (≈ 0.959 µM)	16 µg/mL (≈ 30.7 µM)	4 µg/mL (≈ 7.67 µM)	1 µg/mL (≈ 1.92 µM)	> 32 µg/mL	> 32 µg/mL	–
O=C(Cc1ccccc1)N[C@@H]1C(=O)N2C(C(=O)O)=C(Sc3ccnn3-c3ccccn3)CS[C@H]12 [Cmpd 105, (7R)-7-[(Phenylacetyl)amino]-3-(1-N-(pyridin-2-yl)pyrazol-5-ylthio)-3-cephem-4-carboxylic acid]	–	16 µg/mL (≈ 32.4 µM)	0.25 µg/mL (≈ 0.507 µM)	32 µg/mL (≈ 64.8 µM)	2 µg/mL (≈ 4.05 µM)	1 µg/mL (≈ 2.03 µM)	> 32 µg/mL	> 32 µg/mL	0.25 µg/mL (≈ 0.507 µM)
CCCCCC(=O)N[C@@H]1C(=O)N2C(C(=O)O)=C(Sc3ccnn3-c3ccccc3)CS[C@H]12 [Cmpd 109, (7R)-7-[(hexanoyl)amino]-3-(1-N-phenylpyrazol-5-ylthio)-3-cephem-4-carboxylic acid]	–	16 µg/mL (≈ 33.9 µM)	0.125 µg/mL (≈ 0.264 µM)	32 µg/mL (≈ 67.7 µM)	4 µg/mL (≈ 8.46 µM)	4 µg/mL (≈ 8.46 µM)	> 32 µg/mL	> 32 µg/mL	0.125 µg/mL (≈ 0.264 µM)
O=C(Cc1ccco1)N[C@@H]1C(=O)N2C(C(=O)O)=C(Sc3ccnn3-c3ccccc3)CS[C@H]12 [Cmpd 111, (7R)-7-[(2-furylacetyl)amino]-3-(1-N-phenylpyrazol-5-ylthio)-3-cephem-4-carboxylic acid]	0.5 µg/mL (≈ 1.04 µM)	16 µg/mL (≈ 33.2 µM)	0.25 µg/mL (≈ 0.518 µM)	32 µg/mL (≈ 66.3 µM)	4 µg/mL (≈ 8.29 µM)	4 µg/mL (≈ 8.29 µM)	> 32 µg/mL	> 32 µg/mL	–
O=C(Cc1ccccc1)N[C@@H]1C(=O)N2C(C(=O)O)=C(Sc3ccnn3-c3cccc([N+](=O)[O-])c3)CS[C@H]12 [Cmpd 113, (7R)-7-[(Phenylacetyl)amino]-3-(1-N-(3-nitrophenyl)pyrazol-5-ylthio)-3-cephem-4-carboxylic acid]	–	16 µg/mL (≈ 29.8 µM)	0.125 µg/mL (≈ 0.233 µM)	> 32 µg/mL	4 µg/mL (≈ 7.44 µM)	1 µg/mL (≈ 1.86 µM)	> 32 µg/mL	> 32 µg/mL	0.125 µg/mL (≈ 0.233 µM)
COc1ccc(-n2nccc2SC2=C(C(=O)O)N3C(=O)[C@@H](NC(=O)Cc4ccccc4)[C@H]3SC2)cc1 [Cmpd 114, (7R)-7-[(Phenylacetyl)amino]-3-(1-N-(4-methoxyphenyl)pyrazol-5-ylthio)-3-cephem-4-carboxylic acid]	0.25 µg/mL (≈ 0.478 µM)	16 µg/mL (≈ 30.6 µM)	0.125 µg/mL (≈ 0.239 µM)	32 µg/mL (≈ 61.2 µM)	2 µg/mL (≈ 3.83 µM)	1 µg/mL (≈ 1.91 µM)	> 32 µg/mL	> 32 µg/mL	–
O=C(Cc1cccs1)N[C@@H]1C(=O)N2C(C(=O)O)=C(Sc3ccnn3-c3ccccc3)CS[C@H]12 [Cmpd 116, (7R)-7-[(2-thienylacetyl)amino]-3-(1-N-phenylpyrazol-5-ylthio)-3-cephem-4-carboxylic acid]	0.25 µg/mL (≈ 0.501 µM)	16 µg/mL (≈ 32.1 µM)	0.125 µg/mL (≈ 0.251 µM)	16 µg/mL (≈ 32.1 µM)	2 µg/mL (≈ 4.01 µM)	2 µg/mL (≈ 4.01 µM)	> 32 µg/mL	> 32 µg/mL	–
COc1cccc(-n2nccc2SC2=C(C(=O)O)N3C(=O)[C@@H](NC(=O)Cc4ccccc4)[C@H]3SC2)c1 [Cmpd 117, (7R)-7-[(Phenylacetyl)amino]-3-(1-N-(3-methoxyphenyl)pyrazol-5-ylthio)-3-cephem-4-carboxylic acid]	0.25 µg/mL (≈ 0.478 µM)	16 µg/mL (≈ 30.6 µM)	0.125 µg/mL (≈ 0.239 µM)	32 µg/mL (≈ 61.2 µM)	1 µg/mL (≈ 1.91 µM)	2 µg/mL (≈ 3.83 µM)	> 32 µg/mL	> 32 µg/mL	–
Nc1nnc(SCC(=O)N[C@@H]2C(=O)N3C(C(=O)O)=C(Sc4ccnn4-c4ccccc4)CS[C@H]23)s1 [Cmpd 120]	–	16 µg/mL (≈ 29.2 µM)	0.25 µg/mL (≈ 0.456 µM)	32 µg/mL (≈ 58.4 µM)	8 µg/mL (≈ 14.6 µM)	4 µg/mL (≈ 7.3 µM)	> 32 µg/mL	> 32 µg/mL	0.25 µg/mL (≈ 0.456 µM)
O=C(O)C1=C(Sc2ccnn2-c2ccccc2)CS[C@@H]2[C@H](NC(=O)C(=NO)c3ccco3)C(=O)N12 [Cmpd 121, (7R)-7-[2-(2-furyl)-2-(hydroxyimino)acetamido]-3-(1-N-phenylpyrazol-5-ylthio)-3-cephem-4-carboxylic acid]	0.5 µg/mL (≈ 0.977 µM)	8 µg/mL (≈ 15.6 µM)	0.5 µg/mL (≈ 0.977 µM)	16 µg/mL (≈ 31.3 µM)	2 µg/mL (≈ 3.91 µM)	0.5 to 1 µg/mL (≈ 0.977 to 1.95 µM)	> 32 µg/mL	> 32 µg/mL	–
O=C(Cc1ccccc1)N[C@@H]1C(=O)N2C(C(=O)O)=C(Sc3ccnn3-c3ccc(F)cc3)CS[C@H]12 [Cmpd 123, (7R)-7-[(Phenylacetyl)amino]-3-(1-N-(4-fluorophenyl)pyrazol-5-ylthio)-3-cephem-4-carboxylic acid]	0.06 µg/mL (≈ 0.118 µM)	8 µg/mL (≈ 15.7 µM)	≤ 0.06 µg/mL	16 µg/mL (≈ 31.3 µM)	4 µg/mL (≈ 7.83 µM)	2 µg/mL (≈ 3.92 µM)	> 32 µg/mL	> 32 µg/mL	–
